Experimental data published in paper PMC9944328 (Nature Communications, 2023).
“And” between values parts separate entries of the source, which are not always exact repeats. Equal values may be shown once.

Assays:
SSTR2 [1] = target: SSTR2 (Homo sapiens, UniProt P30874); assay: NanoBiT β-arrestin 1 recruitment assay, HEK293 (SSTR2 wild-type); type: cell-based; set-up: Human full-length SSTR wild-type and mutant vectors were C-terminally fused; expressed in transfected cells; host or cells: HEK293; conditions: for Bottom (β-arrestin1 recruitment) / LogEC50 (β-arrestin1 recruitment) / Span (β-arrestin1 recruitment) / Top (β-arrestin1 recruitment): best-fit;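 for Bottom (best-fit): percent of maximal wild-type response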;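 for Span (best-fit): percent of maximal wild-type response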;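 for Top (best-fit): percent of maximal wild-type response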
Description: The NanoBiT β-arrestin 1 recruitment assays were carried out according to the method described previously. […] Human full-length SSTR wild-type and mutant vectors were C-terminally fused with a 15-amino acid flexible linker and the small fragment (SmBiT). HEK293 cells were seeded into six-well microplates at a density of 1.0 × 10^6 cells/well and cultured for 24 h at 37 °C with 5% CO2. After that, cells were co-transfected with pcDNA3.1+ vectors encoding SSTR wild-type or mutants and human β-arrestin 1. After transfecting for 24 h, the transfected cells were suspended and seeded into white 96-well plates, and then cultured at 37 °C overnight. After that the medium in each well was exchanged for 90 μl of 0.01% bovine serum albumin containing 20 μl of 50 μM coelenterazine h (Carbosynth) diluted in the HBSS assay buffer and incubated for 40 min at room temperature. Then, ligands diluted in the assay buffer was added to each well and the luminescence intensity was measured using the Synergy H1 microplate reader and detected at room temperature in a time period. All data presented are means of at least three independent experiments.

SSTR2 [2] = assay: β-arrestin recruitment with co-transfection of GRK2; type: cell-based, human; conditions: N276(6.55)A and F294(7.35)A with GRK2 co-transfection
Description: In addition, we measured the function of the residues located in the core region and the common ligand binding pocket.
Human full-length β-arrestin 1 was cloned into pcDNA3.1+ vector with the large fragment (LgBiT) of the NanoBiT system and a 15-amino acid flexible linker ([sequence]) at the N-terminus. Human full-length SSTR wild-type and mutant vectors were C-terminally fused with a 15-amino acid flexible linker and the small fragment (SmBiT). HEK293 cells were seeded into six-well microplates at a density of 1.0 × 10^6 cells/well and cultured for 24 h at 37 °C with 5% CO2. After that, cells were co-transfected with pcDNA3.1+ vectors encoding SSTR wild-type or mutants and human β-arrestin 1. After transfecting for 24 h, the transfected cells were suspended and seeded into white 96-well plates, and then cultured at 37 °C overnight. After that the medium in each well was exchanged for 90 μl of 0.01% bovine serum albumin containing 20 μl of 50 μM coelenterazine h (Carbosynth) diluted in the HBSS assay buffer and incubated for 40 min at room temperature. Then, ligands diluted in the assay buffer was added to each well and the luminescence intensity was measured using the Synergy H1 microplate reader and detected at room temperature in a time period. All data presented are means of at least three independent experiments.

Chain of SSTR2 (Homo sapiens, UniProt P30874) (P30874 whole entry, the tested form may be a part): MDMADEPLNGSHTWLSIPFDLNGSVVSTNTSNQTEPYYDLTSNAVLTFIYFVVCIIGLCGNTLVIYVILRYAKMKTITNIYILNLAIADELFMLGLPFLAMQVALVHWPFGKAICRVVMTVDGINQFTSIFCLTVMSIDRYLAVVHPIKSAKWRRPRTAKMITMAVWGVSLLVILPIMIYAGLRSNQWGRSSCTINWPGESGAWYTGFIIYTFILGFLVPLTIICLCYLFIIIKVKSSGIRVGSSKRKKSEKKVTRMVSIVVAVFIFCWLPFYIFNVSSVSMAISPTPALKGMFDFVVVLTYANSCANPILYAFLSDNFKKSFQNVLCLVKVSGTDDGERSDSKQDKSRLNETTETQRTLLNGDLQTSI
Chain of SSTR2 (Homo sapiens, UniProt P30874) (P49407 whole entry partner, the tested form may be a part): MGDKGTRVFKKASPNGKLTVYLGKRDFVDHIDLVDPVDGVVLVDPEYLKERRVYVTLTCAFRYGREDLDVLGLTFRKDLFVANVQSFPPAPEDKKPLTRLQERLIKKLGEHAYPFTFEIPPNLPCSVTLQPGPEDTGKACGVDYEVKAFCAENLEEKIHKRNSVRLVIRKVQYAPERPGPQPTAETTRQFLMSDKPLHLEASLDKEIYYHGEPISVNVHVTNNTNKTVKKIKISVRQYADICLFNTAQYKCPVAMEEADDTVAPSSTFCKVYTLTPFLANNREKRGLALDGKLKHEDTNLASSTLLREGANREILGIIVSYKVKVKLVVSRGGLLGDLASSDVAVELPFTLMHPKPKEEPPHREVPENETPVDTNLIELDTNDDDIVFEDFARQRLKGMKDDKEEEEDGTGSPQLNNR

## N#Cc1cccc(-c2ccc3ncc(-c4cc(F)cc(F)c4)c(N4CCC(N)CC4)c3c2)c1O [paltusotine]
SSTR2 [1]; WT-1 (D122A set)
  Span (best-fit): 106.9
  Top (best-fit): 107.9
SSTR2 [1]; WT-1 (F127A set)
  Bottom (best-fit): -9.341
  LogEC50 (best-fit): -6.513
  Span (best-fit): 113.7
  Top (best-fit): 104.3
SSTR2 [1]; WT-1 (I130A set)
  Bottom (best-fit): -0.4941
  LogEC50 (best-fit): -6.535
  Span (best-fit): 106
  Top (best-fit): 105.5
SSTR2 [1]; WT-1 (Q102A set)
  Span (best-fit): 106.9
SSTR2 [1]; WT-1 (Q126A set)
  Bottom (best-fit): 0.5008
  LogEC50 (best-fit): -6.514
  Span (best-fit): 104.2
  Top (best-fit): 104.7
SSTR2 [1]; WT-1 (V103A set)
  Bottom (best-fit): 0.5008
  LogEC50 (best-fit): -6.514
  Span (best-fit): 104.2
  Top (best-fit): 104.7
SSTR2 [1]; WT-2 (D122A set)
  Bottom (best-fit): 3.261
  LogEC50 (best-fit): -6.399
  Span (best-fit): 103.6
  Top (best-fit): 106.9
SSTR2 [1]; WT-2 (F127A set)
  Bottom (best-fit): -1.812
  LogEC50 (best-fit): -6.566
  Span (best-fit): 107.5
  Top (best-fit): 105.7
SSTR2 [1]; WT-2 (I130A set)
  Bottom (best-fit): -1.026
  LogEC50 (best-fit): -6.849
  Span (best-fit): 102.6
  Top (best-fit): 101.5
SSTR2 [1]; WT-2 (Q126A set)
  Bottom (best-fit): 0.9805
  LogEC50 (best-fit): -6.342
  Span (best-fit): 106.4
  Top (best-fit): 107.4
SSTR2 [1]; WT-2 (V103A set)
  Bottom (best-fit): 0.4349
  LogEC50 (best-fit): -6.531
  Span (best-fit): 102.7
  Top (best-fit): 103.1
SSTR2 [1]; WT-3 (D122A set)
  Bottom (best-fit): 0.9805
  LogEC50 (best-fit): -6.342
  Span (best-fit): 106.4
  Top (best-fit): 107.4
SSTR2 [1]; WT-3 (F127A set)
  Bottom (best-fit): -0.4941
  LogEC50 (best-fit): -6.535
  Span (best-fit): 106
  Top (best-fit): 105.5
SSTR2 [1]; WT-3 (I130A set)
  Bottom (best-fit): -1.282
  LogEC50 (best-fit): -6.883
  Span (best-fit): 103.9
  Top (best-fit): 102.6
SSTR2 [1]; WT-3 (Q102A set)
  Span (best-fit): 106.4
SSTR2 [1]; WT-3 (Q126A set)
  Bottom (best-fit): 0.9805
  LogEC50 (best-fit): -6.342
  Span (best-fit): 106.4
  Top (best-fit): 107.4
SSTR2 [1]; WT-3 (V103A set)
  Bottom (best-fit): 0.5008
  LogEC50 (best-fit): -6.514
  Span (best-fit): 104.2
  Top (best-fit): 104.7
SSTR2 [1]; WT-1
  Bottom (β-arrestin1 recruitment): 1.007 and 0.9805 and 0.9636
  LogEC50 (β-arrestin1 recruitment): -6.376 and -6.342 and -6.276
  Span (β-arrestin1 recruitment): 106.9 and 106.4 and 106.5
  Top (β-arrestin1 recruitment): 107.9 and 107.4 and 107.5
SSTR2 [1]; WT-2
  Bottom (β-arrestin1 recruitment): 0.9805 and 1.007 and 0.8106
  LogEC50 (β-arrestin1 recruitment): -6.342 and -6.376 and -6.212
  Span (β-arrestin1 recruitment): 106.4 and 106.9 and 106.8
  Top (β-arrestin1 recruitment): 107.4 and 107.9 and 107.6
SSTR2 [1]; WT-3
  LogEC50 (β-arrestin1 recruitment): -6.342 and -6.376 and -6.269
  Span (β-arrestin1 recruitment): 106.4 and 106.9 and 104.9
  Top (β-arrestin1 recruitment): 107.4 and 107.9 and 107.1
SSTR2 [1]; β-arrestin recruitment EC50, SSTR2 WT
  Fold of WT: 1
SSTR2 [2]
  β-arrestin recruitment with GRK2: influenced paltusotine induced β-arrestin recruitment
